Results reported in patent US20260242359A1, “IRHOM2 INHIBITORS AND USES THEREOF” (NEW YORK SOCIETY FOR THE RELIEF OF THE RUPTURED AND …, priority 2023, published 2026).

Test system: PMA-induced release of endogenous IL-6R from human peripheral blood mononuclear cells (PBMCs)
Assay: Example 14: ELISA-based IL-6R release assay, PMA-induced, PBMCs from healthy donor
Format: cell-based
Conditions: 10 μM final concentration, PMA 25 ng/ml, delta Buffer stimulated vs unstimulated = 100% inhibition; for inhibition at 10 µM: Homo sapiens, PBMC
Method: In the following study, ELISA-based IL-6R release assays were performed to analyze the inhibitory effects of Compounds 1, 2, 3, 4, 5, and 7 on PMA-induced release of endogenous IL-6R from primary human material obtained from healthy donor using peripheral blood mononuclear cells (PBMCs). The ELISA-based IL-6R release assay that was used in this example is described below.
In brief, on day 1, Nunc black MaxiSorp® 96-well plates (Thermo Fisher Scientific, USA) were coated overnight with […] per well of mouse anti-human IL-6R capture antibody (provided as part of the DuoSet ELISA kit) at 2 μg/ml TBS at 4° C.
40,000 PBMCs from healthy donor (SciRhom GmbH, Germany) in 80 μl of normal growth medium were seeded in each well of Greiner CELLSTAR V-bottom 96-well plates (Greiner Bio-One, Germany) and pre-incubated with 20 μl per well of standard growth medium supplemented with Batimastat (BB94, Abcam, UK) at 50 μM as positive control (for a final concentration of 10 μM in the resulting 100 μl sample volume), compounds of the invention at 50 μM (for a final concentration of 10 μM in the resulting 100 μl sample volume) and in case of Buffer stimulated and unstimulated controls with DMSO (Carl Roth, Germany) at 50 μM (for a final concentration of 10 μM in the resulting 100 μl sample volume) at 37° C., 5% CO2 for 30 minutes. Subsequently, cells (except those for unstimulated controls) were stimulated with 20 μl per well of PMA (Sigma-Aldrich, USA) at 150 ng/ml in growth medium for a final concentration of 25 ng/ml at 37° C., 5% CO2 for 22 hours.
On day 2, the capture antibody solution was removed and MaxiSorp® plates were blocked with 300 μl per well of TBS, 1% BSA at room temperature for 2-3 hours. Meanwhile, the 96-well plates were centrifuged to pellet cells. In parallel, blocking buffer was removed from the MaxiSorp® plates and plates were washed 4 times with 350 μl TBS-T (Carl Roth, Germany) per well on a 96-head plate washer (Tecan Group, Switzerland). To avoid drying-up, 30 μl TBS were added to each well of the MaxiSorp® plates immediately, followed by the transfer of 70 μl cell-free supernatant per sample. Additionally, 100 μl recombinant human IL-6R protein (provided as part of the DuoSet ELISA kit) diluted in TBS at defined concentrations were added to the plate as standard references. Plates were incubated at room temperature for 2 hours. After 4 times washing with 350 μl TBS-T (Carl Roth, Germany) per well on a 96-head plate washer (Tecan Group, Switzerland) and careful removal of all buffer traces after the fourth cycle, 100 μl biotinylated goat anti-human IL-6R detection antibody (provided as part of the DuoSet ELISA kit) at 100 ng/ml TBS were added per well and, protected from direct light, plates were incubated at room temperature for 2 hours. After 4 times washing with 350 μl TBS-T (Carl Roth, Germany) per well on a 96-head plate washer (Tecan Group, Switzerland) and careful removal of all buffer traces after the fourth cycle, 100 μl streptavidin-AP (R&D Systems, USA) diluted 1:10,000 in TBS were added to each well and, again protected from direct light, plates were incubated at room temperature for 30 minutes. Following another round of 4 times washing with 350 μl TBS-T (Carl Roth, Germany) per well on a 96-head plate washer (Tecan Group, Switzerland) and careful removal of all buffer traces after the fourth cycle, 100 μl AttoPhos substrate solution (Promega, USA) per well was added for incubation in the dark at room temperature for 1 hour. Using an infinite M1000 (Tecan Group, Switzerland) microplate reader, the fluorescence of each well was collected at an excitation wavelength of 435 nm and an emission wavelength of 555 nm.
The delta between Buffer stimulated and Buffer unstimulated was defined 100% inhibition.

Structure (SMILES)	inhibition of PMA-induced release of IL-6R from PBMCs from healthy donor (22 hours) [%]	inhibition at 10 µM (22 h) [%]	inhibition at 10 µM (22 hours) [%]
CNC(=O)[C@H](Cc1ccccc1)NC(=O)[C@H](CC(C)C)[C@H](CSc1cccs1)C(=O)NO [Batimastat, reference compound]	98.5	100	
CCC(=O)NCCc1c(/C=C2/C(=O)NC(=O)N(c3ccc(C)cc3C)C2=O)[nH]c2ccccc12 [Compound 1]			112
CCOC(=O)c1ccc(Nc2nc3nonc3n3nnnc23)cc1 [Compound 2]		111	
O=C(c1c(Cl)cccc1Cl)N1CCC(Cc2ccc(F)cc2)CC1 [Compound 3]		0	
Cc1c(C(=O)NCc2cccs2)sc(=O)n1Cc1ccccc1 [Compound 4]		6.2	
Cc1c(C(=O)NCc2cccs2)sc(=O)n1Cc1ccccc1F [Compound 5]		6.5	
Cc1c(C(=O)NCc2ccco2)sc(=O)n1Cc1ccccc1F [Compound 7]		59.1	
